In brackets after ≈: the same amount, converted by molar mass.
How the values were obtained:
[1] = tested on: S. aureus ATCC 29213 derived strains; test: Resistant mutant generation (resistance frequency); conditions: development of DNM resistance in high level CIP resistant strains
Description: Agar plates (15 cm) were prepared containing MH broth and antibacterial compounds at concentrations detailed in the FIG. 10. 40 mL of an overnight bacterial culture was centrifuged at 3000×g for 10 min and resuspended in 0.4 mL of sterile PBS. Plates were inoculated with 100 μL of bacteria in PBS by spreading with beads. […] To determine the number of viable colonies spread onto each plate, dilutions of the overnight culture in sterile PBS were spread onto nonselective MH agar plates and plates were incubated overnight at 37° C. before counting colonies.

[2] = tested on: VRE harboring the S83I mutation (GyrA); test: microbe, parasite or virus in culture; format: cell-based; conditions: Enterococcus
[3] = In vivo toxicity assessment, 10 days; set-up: species or system BALB/c mice; conditions: 50 mg kg^−1 oral once-a-day 10 days; in words
Description: Toxicity was assessed as previously described^56. Specifically, heparinized whole blood was collected for assessment of total white blood cells, neutrophils, lymphocytes, hematocrit, platelets, creatinine, blood urea, nitrogen, albumin, alanine aminotransferase, alkaline phosphatase, and total bilirubin. Mice were euthanized by overdosing with Ketamine/Xylazine, and heart, lung, kidney, liver, spleen, gastrointestinal tract and brain were collected for histopathology. Tissue samples were fixed 24 hours in 10% neutral buffered formalin, processed, and paraffin embedded, sectioned (5 μm thickness) and stained with hematoxylin and eosin. All slides were systematically evaluated by a single board certified veterinary anatomic pathologist (SL) for evidence of acute or chronic inflammation and toxicity. All lesions were characterized, recorded, and scored for severity (minimal=1, mild=2, moderate=3, and severe=4).

Herring Sperm DNA = format: binding; conditions: 30 min, pH 7.5
Description: FIG. 12. In vitro toxicity. A) Hemolysis assay. Human red blood cells were co-incubated with compound. After incubation for 2 h at 37° C., the supernatant was analyzed for hemolysis. Each compound was tested either at 160 μg mL^−1 or at the highest concentration which its solubility allowed. Concentrations (μg mL^−1) are indicated in parenthesis. The negative control is DMSO and the positive control is water. Data shown is from three independent replicates±SEM. B) Ethidium bromide (EtBr) intercalation assay. Compounds were incubated with Herring Sperm DNA, ethidium bromide, and compound of interest for 30 minutes. The solutions were then analyzed for ethidium bromide fluorescence. Any decrease in percentage fluorescence is indicative of compound intercalation. Doxorubicin (DOX) was used as a positive control.
These assays were performed as previously described (Bair et al. J. Am. Chem. Soc. 132, 5469-5478, (2010)). The ability of DNM-2 to intercalate into DNA was measured by an ethidium bromide displacement assay. Herring Sperm DNA (34 μg/mL final) was premixed with buffer containing ethidium bromide (50 mM Tris base, 100 mM NaCl, 1 mM EDTA, 5 μM EtBr, pH=7.5). 95 μL of this solution was added to a 96 well plate containing 5 μL of DMSO solutions of compounds. […] Fluorescence was then read on a Gemini microplate reader (Molecular Devices, excitation=545 nm, emission=595 nm).

[4] = tested on: VRE clinical isolate S234; test: organism not typed; format: cell-based, E. faecalis; conditions: read-out: MIC

Row | Compound | resistance frequency [1] | MIC [2] | hematological and non-hematological toxicity [3] | concentration without significant DNA intercalation (Herring Sperm DNA) | MIC [4]
1 | Cc1cc(=O)n(C)c2c3c4c(cc12)c(C)cc(=O)n4CO3 [DNM, deoxynybomycin] | 1×10^−10 to 7×10^−10 | 0.125 to 1 µg/mL (≈ 0.443 to 3.54 µM) | – | – | –
2 | CCn1c(=O)cc(C)c2cc3c(C)cc(=O)n4c3c(c21)OC4 [DNM-2] | – | – | No clinically significant evidence for myelosuppression, renal injury, or hepatic toxicity | > 30 µM | 0.25 µg/mL (≈ 0.844 µM)

Source: patent publication US9920069B2, “Compounds for treatment of fluoroquinolone-resistant bacteria” (The Board of Trustees of the University of Illinois, priority 2014, dated 2018)
